Measurements taken from US20030148954A1, “Agents and methods for modulating activator protein-1-mediated cellular processes” (Wisconsin Alumni Research Foundation, priority 2001, published 2003).

Experiments:
AP-1 [1] = assay: EMSA of AP-1 DNA binding activity in nuclear extracts; design: species or system human; details: 5 nM TPA 2 hours, nuclear extracts
Protocol: K562-Babe and K562-NIC-1 cells were harvested by centrifugation for 10 min at 150×g. Cells were washed once with ice-cold PBS and resuspended in 1.5 volumes of nuclei lysis buffer (10 mM Tris-HCl, pH 7.5, 10 mM NaCl, 3 mM MgCl2, and 0.2% Nonidet P-40) on ice for 3 min. Nuclei were collected by centrifugation for 5 min at 600×g. Nuclei were washed by gentle resuspension in 1.5 volumes of nuclei wash buffer (10 mM Tris-HCl, pH 7.5, 10 mM NaCl, and 3 mM MgCl2) and then collected by centrifugation for 4 min at 600×g. […] Nuclei were extracted for 45 min at 4° C. with constant mixing. The suspension was then centrifuged for 30 min at 150,000×g. Aliquots of the supernatant were frozen on dry ice and stored at -80° C. The protein concentration as measured by the Bradford assay, with y-globulin as a standard ranged from 4 to 10 mg/ml. DTT (5 mM), phenylmethanesulfonyl fluoride (0.5 mM), leupeptin (20 μg/ml), β-glycerophosphate (800 μM), sodium vanadate (1 mM), and sodium molybdate (50 μM) were included in all buffers. Electrophoretic Mobility Shift Assay-EMSA assays were done as described previously (54). AP-1 DNA binding activity was measured by EMSA with a double-stranded end-labeled oligonucleotide [NT] containing a high affinity AP-1 binding site. […] DNA binding activity was quantitated by PhosphorImager analysis with ImageQuant software (Molecular Dynamics).

AP-1 [2] = assay: AP-1 luciferase reporter, transient transfection of HeLa cells; type: cell-based, human; details: TPA 5 nM 16 h
Source text: Plasmids—The pBabe-NIC-1 (pNIC-1) expression vector encoding constitutively active Notch-1 (NIC-1) was described previously (36,37,51). This vector was derived from the pBabe-puro retroviral vector and includes a cDNA sequence encoding amino acids 1759-2556 of human Notch-1 with a Myc tag fused to its carboxyl terminus. Human NIC-1 deletion mutants were generated by PCR using a full-length human Notch-1 expression vector as the template. The Notch-dependent reporter plasmid containing four CBF1 binding sites and an simian virus 40 promoter fused to luciferase (p4×CBF1luc) was described previously (52). The AP-1 reporter plasmid (p1×AP1luc) containing a collagenase promoter fragment (−73/+67) with a single AP-1 binding site in the luciferase reporter vector pGL2-basic (Promega) was described previously (53). The NF-κB reporter plasmid (p3×κBluc) containing three NF-κB binding sites and a minimal promoter fused to luciferase was a kind gift of Dr. Shigeki Miyamoto (University of Wisconsin Medical School). […]
For each transfection, cells were incubated for 26 h after transfection and then treated with TPA (final concentration: 5 nM) or the vehicle (DMSO). […] Luciferase activity was normalized by the protein content of the lysates, determined by Bradford assay using γ-globulin as a standard.

c-Jun = assay: Western blot of c-Jun protein and c-Jun phosphorylation; type: cell-based, human
Protocol: Stable Transfection—K562 cells were stably transfected by electroporation with a Bio-Rad Gene pulser electroporator. Cells (5×10^6) were washed with ice-cold PBS, resuspended in 0.5 ml of ice-cold PBS, mixed with 5 μg linearized plasmid DNA, and subjected to electroporation (960 microfarad; 220 V) in a 0.4 cm-wide electroporation cuvette (BTX). pBabe and pNIC-1 were linearized with NotI. Cells were then added to 20 ml of complete IMEM, grown for 48 h, and diluted in complete IMEM containing 1.5 μg/ml puromycin (pools of K562-Babe and K562-NIC-1 cells). Stably transfected cells were analyzed for erythroid differentiation as soon as the pools were generated by benzidine staining to reduce the probability of phenotypic changes that may result from prolonged growth.
Cells were washed once with ice-cold PBS, cell pellets were resuspended in 30 μl ice-cold PBS and were immediately boiled in 70 μl SDS sample buffer for 10 min. Proteins (10 μl) were resolved by SDS-PAGE on a 10% acrylamide gel and transferred to Immobilon P membrane (Millipore). After blocking membranes in 5% nonfat dry milk in TBST (10 mM Tris pH 8.0, 150 mM NaCl, 0.3% Tween-20), membranes were incubated with primary antibody (diluted 1:1000 in dry milk/TBST). […] Antigen-antibody complexes were detected with ECL Plus™ (Amersham Life Science) according to manufacturer's instructions.

NIC-1: constitutively active Notch-1 intracellular domain, amino acids 1759-2556 of human Notch-1 with carboxyl-terminal Myc tag, expressed from pBabe-NIC-1
AP-1 complexes formed with extracts from K562-NIC-1 versus K562-Babe cells (AP-1 [1]): no apparent qualitative or quantitative differences
repression of TPA-induced AP-1-mediated activation (AP-1 [2]): repressed
effect on time-dependent induction of phosphorylation of c-Jun (serine 73) and JunD (c-Jun; 5 nM TPA for 0, 5, 10, or 20 min): no effect
effect on c-Jun protein levels (c-Jun; K562-NIC-1 versus K562-Babe): did not affect
